Test results as given in PubChem BioAssay AID330 (DTP/NCI, 2004).
Toxic doses and inconclusive results are not listed. Rule for the calls: active = survival T/C of 150% or more; inactive = T/C below 125% in these data.

Test system: P388 leukemia ip, CD2F1 mice, survival T/C
Test: NCI In Vivo Anticancer Drug Screen. Data for tumor model P388 Leukemia (intraperitoneal) in CD2F1 (CDF1) mice
Settings: endpoint: median survival time, higher = longer survival
Procedure, shortened: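 Mice carrying the transplanted tumor received test compound or vehicle. Survival was recorded in each group, and the value is the treated-group measurement divided by that of the vehicle-treated control group.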

[1] = dose: 100.0 mg/kg/injection, schedule: Q04DX003 (ip), vehicle: saline with Tween-80
[2] = dose: 200.0 mg/kg/injection, schedule: Q04DX003 (ip), vehicle: saline with Tween-80
[3] = dose: 400.0 mg/kg/injection, schedule: Q04DX003 (ip), vehicle: saline with Tween-80
[4] = dose: 100.0 mg/kg/injection, schedule: Q01DX001 (ip), vehicle: saline with Tween-80
[5] = dose: 400.0 mg/kg/injection, schedule: Q01DX001 (ip), vehicle: saline with Tween-80
[6] = dose: 50.0 mg/kg/injection, schedule: Q01DX009 (ip), vehicle: Klucel (hydroxypropylcellulose) (HPC)
[7] = dose: 100.0 mg/kg/injection, schedule: Q01DX009 (ip), vehicle: Klucel (hydroxypropylcellulose) (HPC)
[8] = dose: 200.0 mg/kg/injection, schedule: Q01DX009 (ip), vehicle: Klucel (hydroxypropylcellulose) (HPC)
[9] = dose: 60.0 mg/kg/injection, schedule: Q01DX005 (ip), vehicle: saline with Tween-80
[10] = dose: 120.0 mg/kg/injection, schedule: Q01DX005 (ip), vehicle: saline with Tween-80
[11] = dose: 240.0 mg/kg/injection, schedule: Q01DX005 (ip), vehicle: saline with Tween-80

Measured: T/C

CNCCCc1cc(-c2ccc([N+](=O)[O-])cc2)n[nH]1
inactive: dose: 100.0 mg/kg/injection, schedule: Q04DX002 (ip), vehicle: Klucel (hydroxypropylcellulose) (HPC) 100 % of control | dose: 200.0 mg/kg/injection, schedule: Q04DX002 (ip), vehicle: Klucel (hydroxypropylcellulose) (HPC) 100 % of control

CSC(=S)N(C)N
inactive: [1] 111 % of control | [2] 105 % of control | [3] 100 % of control

C=CC(C(=C)C(=O)OC)c1ccccc1 (stereo not drawn)
inactive: dose: 60.0 mg/kg/injection, schedule: Q01DX005 (ip), vehicle: saline 100 % of control | dose: 120.0 mg/kg/injection, schedule: Q01DX005 (ip), vehicle: saline 109 % of control | dose: 240.0 mg/kg/injection, schedule: Q01DX005 (ip), vehicle: saline 103 % of control

CCCCCCCCCCCCCCCCCC[N+]1(CC)CCSCC1
inactive: dose: 25.0 mg/kg/injection, schedule: Q01DX001 (ip), vehicle: saline with Tween-80 97 % of control | dose: 50.0 mg/kg/injection, schedule: Q01DX001 (ip), vehicle: saline with Tween-80 98 % of control | [4] 94 % of control | [5] 86 % of control

[CH3][Sn]([c]1ccccc1)([c]1cccc2ccccc12)[c]1cccc2ccccc12
inactive: [1] 89 % of control | [2] 91 % of control | [3] 88 % of control

CC(C)C1OC(c2ccc(Cl)cc2)OCC1(C)C (stereo not drawn)
inactive: [1] 114 % of control | [2] 110 % of control | [3] 97 % of control

O=Nc1cc(S(=O)(=O)O)c2ccccc2c1O
inactive: dose: 50.0 mg/kg/injection, schedule: Q01DX009 (ip), vehicle: saline with Tween-80 100 % of control | dose: 100.0 mg/kg/injection, schedule: Q01DX009 (ip), vehicle: saline with Tween-80 90 % of control | dose: 200.0 mg/kg/injection, schedule: Q01DX009 (ip), vehicle: saline with Tween-80 90 % of control

N#CC1C(=O)NC(=S)NC1c1ccco1 (stereo not drawn)
inactive: [6] 100 % of control | [7] 95 % of control | [8] 92 % of control

O=c1oc2ccc3ccccc3c2cc1-c1c[nH]c2ccccc12
inactive: [9] 98 % of control | [10] 95 % of control | [11] 98 % of control

O=c1oc2ccccc2cc1-n1nnc2ccccc21
inactive: [9] 98 % of control | [10] 90 % of control | [11] 90 % of control

CCCCCCNP(=O)(N1CC1)N1CC1
active: dose: 10.0 mg/kg/injection, schedule: Q01DX009 (ip), vehicle: saline 177 % of control | dose: 12.5 mg/kg/injection, schedule: Q04DX003 (ip), vehicle: saline with Tween-80 159 % of control | dose: 20.0 mg/kg/injection, schedule: Q01DX009 (ip), vehicle: saline 227 % of control | dose: 25.0 mg/kg/injection, schedule: Q04DX003 (ip), vehicle: saline with Tween-80 218 % of control
inactive: dose: 3.13 mg/kg/injection, schedule: Q04DX003 (ip), vehicle: saline 104 % of control

O=C(OCCCN1CCCC1)C(c1ccccc1)C1C=CCC1 (stereo not drawn)
inactive: dose: 6.25 mg/kg/injection, schedule: Q01DX009 (ip), vehicle: Klucel (hydroxypropylcellulose) (HPC) 100 % of control | dose: 12.5 mg/kg/injection, schedule: Q01DX009 (ip), vehicle: Klucel (hydroxypropylcellulose) (HPC) 98 % of control | dose: 25.0 mg/kg/injection, schedule: Q01DX009 (ip), vehicle: Klucel (hydroxypropylcellulose) (HPC) 100 % of control | [6] 101 % of control | [7] 95 % of control | [8] 100 % of control | dose: 400.0 mg/kg/injection, schedule: Q01DX009 (ip), vehicle: Klucel (hydroxypropylcellulose) (HPC) 100 % of control

COC(=O)NCCn1c([N+](=O)[O-])cnc1C
inactive: [4] 99 % of control | dose: 200.0 mg/kg/injection, schedule: Q01DX001 (ip), vehicle: saline with Tween-80 98 % of control | [5] 106 % of control

CC(O)C(C(c1ccccc1)N1CCOCC1)N1CCOCC1 (stereo not drawn)
inactive: dose: 50.0 mg/kg/injection, schedule: Q01DX005 (ip), vehicle: Klucel (hydroxypropylcellulose) (HPC) 99 % of control | dose: 100.0 mg/kg/injection, schedule: Q01DX005 (ip), vehicle: Klucel (hydroxypropylcellulose) (HPC) 90 % of control | dose: 200.0 mg/kg/injection, schedule: Q01DX005 (ip), vehicle: Klucel (hydroxypropylcellulose) (HPC) 98 % of control
